Assay results from patent publication US6737383B1, “Herbicidal oxadiazolidines” (priority 1999, dated 2004).

What was measured:
bermuda-grass = test: Test D bermudagrass; type: in vivo, Cynodon dactylon; conditions: Preemergence, 0 to 100 scale
Source text: (§1) Seeds, tubers, or plant parts of Alexandergrass (Brachiaria plantaginea), bermuda-grass (Cynodon dactylon), common pursiane (Portulaca oleracea), common ragweed (Ambrosia elatior), common groundsel (Senecio vulgaris), dallisgrass (Paspalum dilatatum), goosegrass (Eleusine indica), guineagrass (Panicum maximum), itchgrass (Rottboellia exaltata), Johnson grass (Sorghum halepense), large crabgrass (Digitaria sanguinalis), pitted morningglory (Ipomoea lacunosa), purple nutsedge (Cyperus rotundus), sandbur (Cenchrus echinatus), sourgrass (Trichachne insularis), Spanishneedles (Bidens bipinnata), surinam grass (Brachiaria decumbens) and tall mallow (Malva sylvestris) were planted into greenhouse pots of flats containing greenhouse planting medium. Plant species were grown in separate pots or individual compartments. Preemergence applications were made within one day of planting the seed or plant part.
(§2) Test chemicals were formulated in a non-phytotoxic solvent mixture which included a surfactant and applied preemergence to the surface of the pot containing seeds in a sandy loam soil. Untreated control pots and treated pots were placed in the greenhouse for growth and visually evaluated for injury 14 to 21 days after herbicide application. Plant response ratings, summarized in Table C, are based on a 0 to 100 scale where 0 is no injury and 100 is complete control. A dash (−) response means no test result.

common groundsel = test: Test D common groundsel; type: in vivo, Senecio vulgaris; conditions: Preemergence, 0 to 100 scale
Source text: as §1, §2

dallisgrass = test: Test D dallisgrass; type: in vivo, Paspalum dilatatum; conditions: Preemergence, 0 to 100 scale
In short: (§3)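 Visual injury ratings, 0 = no injury to 100 = complete control, taken 14 to 21 days after treatment. Test chemicals were in a surfactant-containing non-phytotoxic solvent; preemergence treatments went onto the sandy loam surface of seeded greenhouse pots within one day of sowing.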

goosegrass = test: Test D goosegrass; type: in vivo, Eleusine indica; conditions: Preemergence, 0 to 100 scale
In short: as §3

guineagrass = test: Test D guineagrass; type: in vivo, Panicum maximum; conditions: Preemergence, 0 to 100 scale
In short: as §3

itchgrass = test: Test D itchgrass; type: in vivo, Rottboellia exaltata; conditions: Preemergence, 0 to 100 scale
Source text: as §1, §2

Johnson grass = test: Test D Johnson grass; type: in vivo, Sorghum halepense; conditions: Preemergence, 0 to 100 scale
In short: as §3

large crabgrass = test: Test D large crabgrass; type: in vivo, Digitaria sanguinalis; conditions: Preemergence, 0 to 100 scale
In short: as §3

pitted morningglory = test: Test D pitted morningglory; type: in vivo, Ipomoea lacunosa; conditions: Preemergence, 0 to 100 scale
In short: as §3

purple nutsedge = test: Test D purple nutsedge; type: in vivo, Cyperus rotundus; conditions: Preemergence, 0 to 100 scale
In short: as §3

sandbur = test: Test D sandbur; type: in vivo, Cenchrus echinatus; conditions: Preemergence, 0 to 100 scale
Source text: as §1, §2

Spanishneedles = test: Test D Spanishneedles; type: in vivo, Bidens bipinnata; conditions: Preemergence, 0 to 100 scale
In short: as §3

arrowleaf sida = test: Test C postemergence arrowleaf sida; type: in vivo, Sida rhombifolia; conditions: 0 to 100 scale, 0 no effect, 100 complete control
Protocol: (§4) Compounds evaluated in this test were formulated in a non-phytotoxic solvent mixture which included a surfactant and applied to plants that were grown for various periods of time before treatment (postemergence application). A mixture of sandy loam soil and greenhouse potting mix in a 60:40 ratio was used for the postemergence test.
(§5) Plantings of these crops and weed species were adjusted to produce plants of appropriate size for the postemergence test. All plant species were grown using normal greenhouse practices. Crop and weed species include arrowleaf sida (Sida rhombifolia), barnyardgrass (Echinochloa crus-galli), cocklebur (Xanthium strumarium), common ragweed (Ambrosia elatior), corn (Zea mays), cotton (Gossypium hirsutum), eastern black nightshade (Solanum ptycanthum), fall panicum (Panicum dichotomiflorum), field bindweed (Convolvulus arvensis), giant foxtail (Setaria faberii), hairy beggarticks (Bidens pilosa), ivyleaf morningglory (Ipomoea hederacea), johnsongrass (Sorghum halepense), ladysthumb smartweed (Polygonum persicaria), lambsquarters (Chenopodium album), large crabgrass (Digitaria sanguinalis), purple nutsedge (Cyperus rotundus), redroot pigweed (Amaranthus retroflexus), soybean (Glycine max), surinam grass (Brachiaria decumbens), velvetleaf (Abutilon theophrasti) and wild poinsettia (Euphorbia heterophylla).
(§6) Treated plants and untreated controls were maintained in a greenhouse for approximately 14, to 21 days, after which all treated plants were compared to untreated controls and visually evaluated. Plant response ratings, summarized in Table C, were based upon a 0 to 100 scale where 0 was no effect and 100 was complete control. A dash response (−) means no test result.

cocklebur = test: Test C postemergence cocklebur; type: in vivo, Xanthium strumarium; conditions: 0 to 100 scale, 0 no effect, 100 complete control
Protocol: as §4, §5, §6

corn = test: Test C postemergence corn; type: in vivo, Zea mays; conditions: 0 to 100 scale, 0 no effect, 100 complete control
Protocol: as §4, §5, §6

ivyleaf morningglory = test: Test C postemergence ivyleaf morningglory; type: in vivo, Ipomoea hederacea; conditions: 0 to 100 scale, 0 no effect, 100 complete control
Protocol: as §4, §5, §6

redroot pigweed = test: Test C postemergence redroot pigweed; type: in vivo, Amaranthus retroflexus; conditions: 0 to 100 scale, 0 no effect, 100 complete control
Protocol: as §4, §5, §6

wild poinsettia = test: Test C postemergence wild poinsettia; type: in vivo, Euphorbia heterophylla; conditions: 0 to 100 scale, 0 no effect, 100 complete control
Protocol: as §4, §5, §6

[1] = Rate 32 g/ha, 0 no injury, 100 complete control
[2] = Rate 64 g/ha, 0 no injury, 100 complete control
[3] = Rate 125 g/ha, 0 no injury, 100 complete control

Compound: CCc1ccccc1-n1c(=O)on(C(=O)N(c2ccc(F)cc2)C(C)C)c1=O [Compound 34]
- Plant response rating, Bermudagrass (bermuda-grass; [1]): 85
- Plant response rating, Bermudagrass (bermuda-grass; [2]): 98
- Plant response rating, Bermudagrass (bermuda-grass; [3]): 100
- Plant response rating, Bermudagrass (bermuda-grass; Rate 250 g/ha): 100
- Plant response rating, Com. groundsel (common groundsel; [1]): 0
- Plant response rating, Com. groundsel (common groundsel; [2]): 0
- Plant response rating, Com. groundsel (common groundsel; [3]): 0
- Plant response rating, Com. groundsel (common groundsel; Rate 250 g/ha): 0
- Plant response rating, Dallisgrass (dallisgrass; [1]): 0
- Plant response rating, Dallisgrass (dallisgrass; [2]): 80
- Plant response rating, Dallisgrass (dallisgrass; [3]): 98
- Plant response rating, Dallisgrass (dallisgrass; Rate 250 g/ha): 100
- Plant response rating, Goosegrass (goosegrass; [1]): 0
- Plant response rating, Goosegrass (goosegrass; [2]): 75
- Plant response rating, Goosegrass (goosegrass; [3]): 85
- Plant response rating, Goosegrass (goosegrass; Rate 250 g/ha): 98
- Plant response rating, Guineagrass (guineagrass; [1]): 30
- Plant response rating, Guineagrass (guineagrass; [2]): 80
- Plant response rating, Guineagrass (guineagrass; [3]): 85
- Plant response rating, Guineagrass (guineagrass; Rate 250 g/ha): 98
- Plant response rating, Itchgrass (itchgrass; [1]): 0
- Plant response rating, Itchgrass (itchgrass; [2]): 0
- Plant response rating, Itchgrass (itchgrass; [3]): 0
- Plant response rating, Itchgrass (itchgrass; Rate 250 g/ha): 20
- Plant response rating Johnsongrass (Johnson grass; [1]): 0
- Plant response rating Johnsongrass (Johnson grass; [2]): 0
- Plant response rating Johnsongrass (Johnson grass; [3]): 20
- Plant response rating Johnsongrass (Johnson grass; Rate 250 g/ha): 30
- Plant response rating Large crabgrass (large crabgrass; [1]): 85
- Plant response rating Large crabgrass (large crabgrass; [2]): 98
- Plant response rating Large crabgrass (large crabgrass; [3]): 100
- Plant response rating Large crabgrass (large crabgrass; Rate 250 g/ha): 100
- Plant response rating, P. morninglory (pitted morningglory; [1]): 0
- Plant response rating, P. morninglory (pitted morningglory; [2]): 0
- Plant response rating, P. morninglory (pitted morningglory; [3]): 0
- Plant response rating, P. morninglory (pitted morningglory; Rate 250 g/ha): 0
- Plant response rating, Purple nutsedge (purple nutsedge; [1]): 0
- Purple nutsedge plant response rating (purple nutsedge; [2]): 0
- Purple nutsedge plant response rating (purple nutsedge; [3]): 0
- Plant response rating, Purple nutsedge (purple nutsedge; Rate 250 g/ha): 0
- Plant response rating, Sandbur (sandbur; [1]): 0
- Sandbur plant response rating (sandbur; [2]): 0
- Sandbur plant response rating (sandbur; [3]): 30
- Plant response rating, Sandbur (sandbur; Rate 250 g/ha): 40
- Plant response rating, Spanishneedles (Spanishneedles; [1]): 0
- Spanishneedles plant response rating (Spanishneedles; [2]): 0
- Spanishneedles plant response rating (Spanishneedles; [3]): 0

Compound: Cc1ccccc1-n1c(=O)on(C(=O)N(c2ccccc2)C(C)C)c1=O [Compound 36]
- Plant response rating, Bermudagrass (bermuda-grass; Rate 500 g/ha): 100
- Plant response rating, Com. groundsel (common groundsel; Rate 500 g/ha): 100
- Plant response rating, Dallisgrass (dallisgrass; Rate 500 g/ha): 100
- Plant response rating, Goosegrass (goosegrass; Rate 500 g/ha): 100
- Plant response rating, Guineagrass (guineagrass; Rate 500 g/ha): 100
- Plant response rating, Itchgrass (itchgrass; Rate 500 g/ha): 80
- Plant response rating Johnsongrass (Johnson grass; Rate 500 g/ha): 0
- Plant response rating Large crabgrass (large crabgrass; Rate 500 g/ha): 100
- Plant response rating, P. morninglory (pitted morningglory; Rate 500 g/ha): 0
- Plant response rating, Purple nutsedge (purple nutsedge; Rate 500 g/ha): 0
- Plant response rating, Sandbur (sandbur; Rate 500 g/ha): 100
- Plant response rating, Spanishneedles (Spanishneedles; Rate 500 g/ha): 10

Compound: CC(C)N(C(=O)n1oc(=O)n(Cc2ccccc2)c1=O)c1ccccc1 [Compound 94]
- Plant response rating Arrowleaf sida (arrowleaf sida; Rate 280 g/ha): 10
- Plant response rating Arrowleaf sida (arrowleaf sida; Rate 560 g/ha): 80
- Plant response rating Arrowleaf sida (arrowleaf sida; Rate 1120 g/ha): 80
- Plant response rating, Cocklebur (cocklebur; Rate 140 g/ha): 0
- Plant response rating, Cocklebur (cocklebur; Rate 280 g/ha): 0
- Plant response rating, Corn (corn; Rate 140 g/ha): 0
- Plant response rating, Corn (corn; Rate 280 g/ha): 0
- Plant response rating, Corn (corn; Rate 560 g/ha): 0
- Plant response rating, Corn (corn; Rate 1120 g/ha): 0
- Plant response rating I. morningglory (ivyleaf morningglory; Rate 140 g/ha): 0
- Plant response rating I. morningglory (ivyleaf morningglory; Rate 280 g/ha): 10
- Plant response rating I. morningglory (ivyleaf morningglory; Rate 560 g/ha): 90
- Plant response rating, Redroot pigweed (redroot pigweed; Rate 560 g/ha): 0
- Plant response rating, Redroot pigweed (redroot pigweed; Rate 1120 g/ha): 0
- Plant response rating Wild poinsettia (wild poinsettia; Rate 140 g/ha): 0
- Plant response rating Wild poinsettia (wild poinsettia; Rate 280 g/ha): 0
- Plant response rating Wild poinsettia (wild poinsettia; Rate 560 g/ha): 60
- Plant response rating Wild poinsettia (wild poinsettia; Rate 1120 g/ha): 85
- Plant response rating, Bermudagrass (bermuda-grass; [3]): 90
- Plant response rating, Bermudagrass (bermuda-grass; Rate 500 g/ha): 100
- Plant response rating, Com. groundsel (common groundsel; [3]): 75
- Plant response rating, Com. groundsel (common groundsel; Rate 500 g/ha): 100
- Plant response rating, Dallisgrass (dallisgrass; [3]): 98
- Plant response rating, Dallisgrass (dallisgrass; Rate 500 g/ha): 100
- Plant response rating, Goosegrass (goosegrass; [3]): 85
- Plant response rating, Goosegrass (goosegrass; Rate 500 g/ha): 100
- Plant response rating, Guineagrass (guineagrass; [3]): 0
- Plant response rating, Guineagrass (guineagrass; Rate 500 g/ha): 100
- Plant response rating, Itchgrass (itchgrass; [3]): 0
- Plant response rating, Itchgrass (itchgrass; Rate 500 g/ha): 40
- Plant response rating Johnsongrass (Johnson grass; [3]): 0
- Plant response rating Johnsongrass (Johnson grass; Rate 500 g/ha): 20
- Plant response rating Large crabgrass (large crabgrass; [3]): 98
- Plant response rating Large crabgrass (large crabgrass; Rate 500 g/ha): 100
- Plant response rating, P. morninglory (pitted morningglory; [3]): 0
- Plant response rating, P. morninglory (pitted morningglory; Rate 500 g/ha): 0
- Purple nutsedge plant response rating (purple nutsedge; [3]): 50
- Plant response rating, Purple nutsedge (purple nutsedge; Rate 500 g/ha): 50
- Sandbur plant response rating (sandbur; [3]): 20
- Plant response rating, Sandbur (sandbur; Rate 500 g/ha): 100
- Spanishneedles plant response rating (Spanishneedles; [3]): 0
- Plant response rating, Spanishneedles (Spanishneedles; Rate 500 g/ha): 0
